Test results published in US20050065218A1, “Utilization of alverine, alone or in combination with tricyclic antidepressant or a specific serotonin reuptake inhibitor for the treatment of depression” (priority 2003, published 2005).
Several values for one entry are separate records, joined by “and”; a condition that tells them apart may be missing. Equal values may be shown once. Where a name gives a salt, the structure may show the parent alone.

Tested on: Swiss mice CD1
Experiment: forced swim test, Alverine and fluoxetine administered intraperitoneally to mice (Example 3, second test)
Type: in vivo
Settings: for immobility time, individual animals / immobility time, Mean: 30 minutes prior to the test; for immobility time, Mean: n = 10
Experimental: These are Swiss mice CD1 (CD-1® (ICR) IGS (Charles River France) weighing between 25 and 35 g. […] They are placed 15 to 20 per cage, over an acclimatising period of at least 5 days prior to the tests. They are identified by marking on the fur. […] The mice were divided into two test comprising six groups of 10 mice each. For the second test: The first group is the control group: it is treated only by excipient. […] The doses are expressed in terms of free active substances. The test substances are prepared extemporaneously in a saline solution. The treatments are co-administered 30 minutes prior to the test in a coded and random order intraperitoneally with a volume of 10 ml/kg (5 ml/kg for each administration). […] The total duration of immobility is measured over the last four minutes of the test, six minutes in total. A mouse is deemed immobile when it ceases struggling and floats in the water without movements superfluous to those allowing it to keep its head above water. A drop in immobility time is the reflection of an antidepressant effect. The forced swim test is a pre-clinical behavioural model, which has good predictive validity and is widely employed for determining the efficacy of antidepressant medications (Borsini and Meli, 1988). The results are expressed in total duration of immobility in seconds and as a percentage of variation of the total duration of immobility calculated from the average value of the control group. The statistical significance between two treated groups is determined by using a Student test (P<0.05) The data are analysed using <<SigmaStat>> software.

[1] = Alverine 3 mg/kg intraperitoneally
[2] = Alverine 10 mg/kg intraperitoneally

## CCN(CCCc1ccccc1)CCCc1ccccc1 [Alverine citrate, N-ethyl-3,3′-diphenyldipropylamine]
[1]
  % of variation of immobility time vs control group: −37%
  Dunnett test vs control group: * (* indicates a significant difference for p < 0.05 (Dunnett test))
  immobility time, individual animals: 119 sec and 138 sec and 117 sec (2×) and 110 sec and 73 sec and 47 sec and 124 sec and 72 sec and 32 sec
  immobility time, Mean: 94.9 s
[2]
  % of variation of immobility time vs control group: −49%
  Dunnett test vs control group: * (* indicates a significant difference for p < 0.05 (Dunnett test))
  immobility time, individual animals: 63 sec and 75 sec (2×) and 77 sec and 46 sec and 6 sec and 113 sec and 89 sec and 104 sec and 125 sec
  immobility time, Mean: 77.3 s
Tested alone at 3 mg/kg intraperitoneally
  decrease in the duration of immobilisation as compared to the control group (in words): statistically significant decrease
